Values joined by “and” are separate entries in the source; they are usually repeats but may differ in a detail not shown here. Equal values may be shown once. Toxic doses and inconclusive results are not listed.

The test system of this experiment is P388 leukemia ip, CD2F1 mice, survival T/C. Kind of experiment: NCI In Vivo Anticancer Drug Screen. Data for tumor model P388 Leukemia (intraperitoneal) in CD2F1 (CDF1) mice. Particulars: endpoint: median survival time, higher = longer survival. The essentials:
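Mice carrying the transplanted tumor received test compound or vehicle. Survival was recorded in each group, and the value is the treated-group measurement divided by that of the vehicle-treated control group.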

Setting [1] is: dose: 60.0 mg/kg/injection, schedule: Q01DX005 (ip), vehicle: saline with Tween-80.
[2] abbreviates: dose: 120.0 mg/kg/injection, schedule: Q01DX005 (ip), vehicle: saline with Tween-80.
The mark [3] stands for this setting: dose: 240.0 mg/kg/injection, schedule: Q01DX005 (ip), vehicle: saline with Tween-80.
The mark [4] stands for this setting: dose: 50.0 mg/kg/injection, schedule: Q01DX009 (ip), vehicle: Klucel (hydroxypropylcellulose) (HPC).
Setting [5] is: dose: 100.0 mg/kg/injection, schedule: Q01DX009 (ip), vehicle: Klucel (hydroxypropylcellulose) (HPC).
Setting [6] is: dose: 25.0 mg/kg/injection, schedule: Q01DX009 (ip), vehicle: saline with Tween-80.
The mark [7] stands for this setting: dose: 50.0 mg/kg/injection, schedule: Q01DX009 (ip), vehicle: saline with Tween-80.
Setting [8] is: dose: 100.0 mg/kg/injection, schedule: Q01DX009 (ip), vehicle: saline with Tween-80.
[9] abbreviates: dose: 200.0 mg/kg/injection, schedule: Q01DX009 (ip), vehicle: saline with Tween-80.

Turning to `O=C(NC[N+]12CCO[B-]1(c1ccccc1)OCC2)c1ccccc1O` (stereo unspecified), the T/C (dose: 50.0 mg/kg/injection, schedule: Q01DX005 (ip), vehicle: Klucel (hydroxypropylcellulose) (HPC)) was 106 % of control; the T/C (dose: 100.0 mg/kg/injection, schedule: Q01DX005 (ip), vehicle: Klucel (hydroxypropylcellulose) (HPC)) is 98 % of control; the T/C (dose: 200.0 mg/kg/injection, schedule: Q01DX005 (ip), vehicle: Klucel (hydroxypropylcellulose) (HPC)) was 103 % of control.
For the compound `Cc1nn(-c2ccccc2)nc1C(=O)Nc1ccc2[nH]ncc2c1`, the T/C by setting is: under setting [1], 91 % of control; under setting [2], 94 % of control; under setting [3], 86 % of control.
For the compound `Cc1c(N)nc([C@H](CC(N)=O)NC[C@H](N)C(N)=O)nc1C(=O)N[C@H](C(=O)N[C@H](C)[C@@H](O)CC(=O)N[C@H](C(=O)NC(O[C@@H]1O[C@@H](C)[C@@H](N)[C@@H](O)[C@H]1O)C(O)c1nc(-c2nc(C(=O)NCCCCN)cs2)cs1)[C@@H](C)O)[C@@H](O[C@@H]1O[C@@H](CO)[C@@H](O)[C@H](O)[C@@H]1O[C@H]1O[C@H](CO)[C@@H](O)[C@H](OC(N)=O)[C@@H]1O)c1c[nH]cn1` (stereo partly specified), the T/C is, setting by setting: (dose: 0.5 mg/kg/injection, schedule: Q01DX009 (ip), vehicle: water) 101 % of control; (dose: 1.0 mg/kg/injection, schedule: Q01DX009 (ip), vehicle: water) 98 % of control; (dose: 2.0 mg/kg/injection, schedule: Q01DX009 (ip), vehicle: water) 124 % of control; (dose: 4.0 mg/kg/injection, schedule: Q01DX009 (ip), vehicle: water) 95 % of control; (dose: 8.0 mg/kg/injection, schedule: Q01DX009 (ip), vehicle: water) 123 % of control.
As for `[N-]=[N+]=Nc1ccccc1C(=O)NCCNC(=O)c1ccccc1N=[N+]=[N-]`, the T/C was 94 % of control (dose: 6.25 mg/kg/injection, schedule: Q01DX005 (ip), vehicle: saline with Tween-80); 91 % of control (dose: 12.5 mg/kg/injection, schedule: Q01DX005 (ip), vehicle: saline with Tween-80); 87 % of control (dose: 200.0 mg/kg/injection, schedule: Q01DX005 (ip), vehicle: saline with Tween-80).
As for `CCOC(=O)CCC(NC(=O)c1ccc(I)cc1)C(=O)OCC` (stereo unspecified), the T/C under setting [4] is 100 % of control; the T/C under setting [5] is 93 % of control; the T/C (dose: 200.0 mg/kg/injection, schedule: Q01DX009 (ip), vehicle: Klucel (hydroxypropylcellulose) (HPC)) is 102 % of control.
As to `Cc1cc(C)c(S(=O)(=O)NN)c(C)c1`, the T/C by setting is: under setting [6], 104 % of control; under setting [7], 104 % of control; under setting [8], 100 % of control; under setting [9], 95 % of control.
For `CS(=O)(=O)Cc1cc(-c2ccccc2)no1`, the T/C runs as follows: under setting [1], 100 % of control; under setting [2], 99 % of control; under setting [3], 100 % of control.
Regarding `Cc1ccc2c(c1)sc1nnc(C)n12`, the T/C is, setting by setting: under setting [4], 114 % of control; under setting [5], 97 % of control.
As to `Cc1ccc(S(=O)(=O)C(c2ccccc2)C(Br)C(=O)c2ccccc2)cc1` (stereo unspecified), the T/C runs as follows: (dose: 100.0 mg/kg/injection, schedule: Q04DX003 (ip), vehicle: saline) 87 % of control; (dose: 200.0 mg/kg/injection, schedule: Q04DX003 (ip), vehicle: saline) 88 % of control.
With `CC(=O)NC1=C(N2CC2C)C(=O)C(NC(C)=O)=C(N2CC2C)C1=O` (stereo unspecified), the T/C (dose: 1.78 mg/kg/injection, schedule: Q01DX009 (ip), vehicle: saline) was 122 % of control; the T/C (dose: 2.66 mg/kg/injection, schedule: Q01DX009 (ip), vehicle: saline) is 160 % of control; the T/C (dose: 4.0 mg/kg/injection, schedule: Q01DX009 (ip), vehicle: saline) is 163 % of control; the T/C (dose: 6.0 mg/kg/injection, schedule: Q01DX009 (ip), vehicle: saline) is 210 % of control.
Consider `CSc1ncnc2c1ncn2C1OC(CO)C(O)C1O` (stereo unspecified), for which the T/C was 107 % of control (dose: 2.0 mg/kg/injection, schedule: Q01DX010 (ip), vehicle: saline); 102 % of control and 104 % of control (dose: 4.0 mg/kg/injection, schedule: Q01DX010 (ip), vehicle: saline); 100 % of control and 116 % of control (dose: 8.0 mg/kg/injection, schedule: Q01DX010 (ip), vehicle: saline); 109 % of control and 120 % of control (dose: 16.0 mg/kg/injection, schedule: Q01DX010 (ip), vehicle: saline); 95 % of control under setting [6]; 93 % of control under setting [7]. Besides, the T/C by setting is: (dose: 54.0 mg/kg/injection, schedule: Q01DX001 (ip), vehicle: saline) 111 % of control; (dose: 82.0 mg/kg/injection, schedule: Q01DX001 (ip), vehicle: saline) 117 % of control and 118 % of control; under setting [8], 104 % of control; under setting [9], 101 % of control.
For `CCCCCCCCCCCCCCCc1cccc(O)c1C(=O)O`, the T/C reads like this: (dose: 12.5 mg/kg/injection, schedule: Q01DX005 (ip), vehicle: distilled water + Tween-80) 106 % of control; (dose: 20.0 mg/kg/injection, schedule: Q01DX009 (ip), vehicle: saline with Tween-80) 113 % of control; (dose: 25.0 mg/kg/injection, schedule: Q01DX005 (ip), vehicle: distilled water + Tween-80) 102 % of control; (dose: 40.0 mg/kg/injection, schedule: Q01DX009 (ip), vehicle: saline with Tween-80) 111 % of control; (dose: 50.0 mg/kg/injection, schedule: Q01DX005 (ip), vehicle: distilled water + Tween-80) 107 % of control; (dose: 80.0 mg/kg/injection, schedule: Q01DX009 (ip), vehicle: saline with Tween-80) 109 % of control. The T/C (dose: 100.0 mg/kg/injection, schedule: Q01DX005 (ip), vehicle: distilled water + Tween-80) was 117 % of control.
`O=C1C=C(Nc2ccccc2)CCC1`: the T/C by setting is: (dose: 100.0 mg/kg/injection, schedule: Q04DX003 (ip), vehicle: saline with Tween-80) 100 % of control; (dose: 200.0 mg/kg/injection, schedule: Q04DX003 (ip), vehicle: saline with Tween-80) 105 % of control; (dose: 400.0 mg/kg/injection, schedule: Q04DX003 (ip), vehicle: saline with Tween-80) 105 % of control.
For the compound `COc1nc(N2CCNCC2)nc2c1CCCC2`, the T/C runs as follows: (dose: 60.0 mg/kg/injection, schedule: Q01DX005 (ip), vehicle: saline) 93 % of control; (dose: 120.0 mg/kg/injection, schedule: Q01DX005 (ip), vehicle: saline) 103 % of control.
On to `O=C(O)c1c(C(=O)O)c2cccn2c2c1cnn2-c1ccccc1`, for which the T/C is 102 % of control under setting [1], 100 % of control under setting [2] and 100 % of control under setting [3].
Consider `Cc1cc(Br)c(NC(=S)SCc2ccc(Cl)cc2)cc1C`, for which the T/C (dose: 50.0 mg/kg/injection, schedule: Q01DX009 (ip), vehicle: suspension in saline) was 101 % of control; the T/C (dose: 100.0 mg/kg/injection, schedule: Q01DX009 (ip), vehicle: suspension in saline) was 107 % of control; the T/C (dose: 200.0 mg/kg/injection, schedule: Q01DX009 (ip), vehicle: suspension in saline) is 98 % of control.
Regarding `CC1C=CC(C)N(C(N)=O)N1C(N)=O` (stereo unspecified), the T/C was 98 % of control (dose: 100.0 mg/kg/injection, schedule: Q01DX001 (ip), vehicle: saline with Tween-80); 100 % of control (dose: 200.0 mg/kg/injection, schedule: Q01DX001 (ip), vehicle: saline with Tween-80); 91 % of control (dose: 400.0 mg/kg/injection, schedule: Q01DX001 (ip), vehicle: saline with Tween-80).
Take `COc1ccc2c(c1)[C@@]13CCCC[C@H]1[C@H](N(C)CC3)C21CC1`: the T/C (dose: 100.0 mg/kg/injection, schedule: Q01DX001 (ip), vehicle: Klucel (hydroxypropylcellulose) (HPC)) was 97 % of control and the T/C (dose: 200.0 mg/kg/injection, schedule: Q01DX001 (ip), vehicle: Klucel (hydroxypropylcellulose) (HPC)) was 102 % of control.
Take `COc1cccc2c1C(=O)c1c(O)c3c(c(O)c1C2=O)C[C@@](O)(/C(C)=N/NC(N)=S)C[C@@H]3OC1CC(N)C(O)C(C)O1` (stereo partly specified): the T/C reads like this: (dose: 3.13 mg/kg/injection, schedule: Q04DX003 (ip), vehicle: water) 108 % of control; (dose: 6.25 mg/kg/injection, schedule: Q04DX003 (ip), vehicle: water) 109 % of control; (dose: 12.5 mg/kg/injection, schedule: Q04DX003 (ip), vehicle: water) 112 % of control and 117 % of control; (dose: 25.0 mg/kg/injection, schedule: Q04DX003 (ip), vehicle: water) 117 % of control and 123 % of control; (dose: 50.0 mg/kg/injection, schedule: Q04DX003 (ip), vehicle: water) 117 % of control and 122 % of control; (dose: 200.0 mg/kg/injection, schedule: Q04DX003 (ip), vehicle: water) 155 % of control.

These data come from PubChem BioAssay AID330 (DTP/NCI, 2004).
